# In paper PMC4254541 (Bioorganic & medicinal chemistry letters, 2014):
# Like-named read-outs stand apart in the source and are kept apart here.
# Key:
# Type in all cases: binding
# [1] = molecular target: synthetic Aβ(1–42) fibrils (Homo sapiens, UniProt P05067); experiment: Displacement of 5 nM [3H]-1a
# [2] = molecular target: synthetic Aβ(1–40) fibrils (Homo sapiens, UniProt P05067); experiment: Displacement of 5 nM [3H]-1a
# Aβ40 and Aβ42 fibrils = experiment: Displacement of tritiated 1a from Aβ fibrils; conditions: benzothiazole ligands versus tritiated 1a on Aβ fibrils
# [3] = read-out: Aβ(1–42) EC50, displacement of 5 nM [3H]-1a from synthetic Aβ(1–42) fibrils
# [4] = read-out: Aβ(1–40) EC50, displacement of 5 nM [3H]-1a from synthetic Aβ(1–40) fibrils
# Sequence of synthetic Aβ(1–42) fibrils (P05067 672-713): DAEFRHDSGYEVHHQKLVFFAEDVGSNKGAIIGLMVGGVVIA
# Sequence of synthetic Aβ(1–40) fibrils (P05067 672-711): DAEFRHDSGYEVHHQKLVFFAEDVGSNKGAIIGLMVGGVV
EC50 [1] [µM],EC50 [2] [µM],displacing 1a (Aβ40 and Aβ42 fibrils),"EC50 [1, 3] [µM]","EC50 [2, 4] [µM]",Compound
3,> 10,,,,"COc1cc(/C=C/c2ccc(N)cc2)ccc1/C=C/c1ccc(N)cc1 [BMB, (E,E)-1-methoxy-2,5-bis(4’-aminostyryl)benzene]"
0.12,0.23,,,,O=C(O)c1cc(/C=C/c2ccc(/C=C/c3ccc(O)c(C(=O)O)c3)c(Br)c2)ccc1O [BSB]
,,ineffective,,,"CNc1ccc(-c2nc3ccccc3s2)cc1 [BTA-1, 2-(4´-methylaminophenyl)benzothiazole]"
0.9,9,,,,O=C(O)c1cc(/N=N/c2ccc(-c3ccc(/N=N/c4ccc(O)c(C(=O)O)c4)cc3)cc2)ccc1O [Chrysamine G]
0.7,2.3,,,,Nc1c(/N=N/c2ccc(-c3ccc(/N=N/c4cc(S(=O)(=O)O)c5ccccc5c4N)cc3)cc2)cc(S(=O)(=O)O)c2ccccc12 [Congo Red]
3,> 10,,,,"Oc1ccc(/C=C/c2ccc(/C=C/c3ccc(O)cc3)c(Br)c2)cc1 [K114, (E,E)-1-bromo-2,5-bis(4’-hydroxystyryl)benzene]"
,,ineffective,,,"CNc1ccc(-c2nc3ccc(O)cc3s2)cc1 [PIB, Pittsburgh Compound B]"
,,ineffective,,,"Cc1ccc2c(c1)sc(-c1ccc(N(C)C)cc1)[n+]2C.[Cl-] [ThT, Thioflavine T]"
> 10,> 10,,,,CC(C)Cc1ccc(C(C)C(=O)O)cc1 (stereo not drawn) [ibuprofen]
> 10,> 10,,,,COc1ccc2cc([C@H](C)C(=O)O)ccc2c1 [naproxen]
,,,> 10,> 10,Thioflavin S [ThS]
,,,> 10,> 10,primulin
